From US12679824B2 (Hoffmann-La Roche Inc., priority 2020, dated 2026)

Each compound was assayed on Acinetobacter baumannii ATCC17961 (assay: 90% Growth Inhibitory Concentration (IC90) determination, antimicrobial susceptibility testing). Settings: Acinetobacter baumannii, ATCC17961, 16 h, Acinetobacter baumannii ATCC17961; Iso-Sensitest broth; growth by optical density at 600 nm over 16h; concentration inhibiting 90% of the growth; read-out: ATCC 17961 IC90.
Format: cell-based
Procedure, shortened: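 Broth microdilution in Iso-Sensitest medium, compounds twofold diluted (e.g. 50–0.097 μM final), inoculum ~5×10^(5) CFU/ml, 35±2° C. OD600 was read every 20 min over 16 h. IC90 was derived from growth inhibition during logarithmic growth.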

Structure (SMILES)	IC90 [µM]
COc1cc(-n2cc(-c3cnc(C(=O)Nc4ccc(C(=O)N5CCN(C(=O)C6CCNCC6)CC5)c(Cl)c4)n3C)c(C(F)(F)F)n2)ncn1 [Example Z49, N-[3-chloro-4-(4-isonipecotoylpiperazine-1-carbonyl)phenyl]-5-[1-(6-methoxypyrimidin-4-yl)-3-(trifluoromethyl)pyrazol-4-yl]-1-methyl-imidazole-2-carboxamide]	0.84
Cn1c(-c2cn(-c3ccc(N)cn3)nc2C(F)(F)F)cnc1C(=O)Nc1ccc(C(=O)N2C[C@H]3C[C@@H]2CN3)c(Cl)c1 [Example Z66, 5-[1-(5-amino-2-pyridyl)-3-(trifluoromethyl)pyrazol-4-yl]-N-[3-chloro-4-[(1R,4R)-2,5-diazabicyclo[2.2.1]heptane-2-carbonyl]phenyl]-1-methyl-imidazole-2-carboxamide]	1.16
Cn1c(-c2cn(-c3ccc(N)cn3)nc2C(F)(F)F)cnc1C(=O)Nc1ccc(C(=O)N2CCN(C(=O)CN3CCC(O)C3)CC2)c(Cl)c1 (centres unmarked) [Example C16, 5-[1-(5-amino-2-pyridyl)-3-(trifluoromethyl)pyrazol-4-yl]-N-[3-chloro-4-[4-[2-(3-hydroxypyrrolidin-1-yl)acetyl]piperazine-1-carbonyl]phenyl]-1-methyl-imidazole-2-carboxamide]	0.26
CN(C)c1ccc(-n2cc(-c3cnc(C(=O)Nc4ccc(C(=O)N5CCN(C(=O)C6CCNCC6)CC5)c(Cl)c4)n3C)c(C(F)(F)F)n2)nn1 [Example B3, N-[3-chloro-4-[4-(piperidine-4-carbonyl)piperazine-1-carbonyl]phenyl]-5-[1-[6-(dimethylamino)pyridazin-3-yl]-3-(trifluoromethyl)pyrazol-4-yl]-1-methyl-imidazole-2-carboxamide]	0.48
Cn1c(-c2cn(-c3ccc(N)cn3)nc2C(F)(F)F)cnc1C(=O)Nc1ccc(C(=O)N2CC3(CC(NC(=O)[C@@H]4C[C@@H](O)CN4)C3)C2)c(Cl)c1 [Example Z25, 5-[1-(5-amino-2-pyridyl)-3-(trifluoromethyl)pyrazol-4-yl]-N-[3-chloro-4-[6-[[(2S,4R)-4-hydroxyprolyl]amino]-2-azaspiro[3.3]heptane-2-carbonyl]phenyl]-1-methyl-imidazole-2-carboxamide]	0.54
Cn1c(-c2cn(-c3ccc(N)cn3)nc2C(F)(F)F)cnc1C(=O)Nc1ccc(C(=O)N2C3CCC2CNC3)c(Cl)c1 [Example Z62, 5-[1-(5-amino-2-pyridyl)-3-(trifluoromethyl)pyrazol-4-yl]-N-[3-chloro-4-(3,8-diazabicyclo[3.2.1]octane-8-carbonyl)phenyl]-1-methyl-imidazole-2-carboxamide]	0.38
Cn1c(-c2cn(-c3ccc(N)cn3)nc2C(F)(F)F)cnc1C(=O)Nc1ccc(C(=O)NCC2CC2N)c(Cl)c1 (centres unmarked) [Example Z18, N-[4-[(2-aminocyclopropyl)methylcarbamoyl]-3-chloro-phenyl]-5-[1-(5-amino-2-pyridyl)-3-(trifluoromethyl)pyrazol-4-yl]-1-methyl-imidazole-2-carboxamide]	1.59
Cn1c(-c2cn(-c3ccc(N)cn3)nc2C(F)(F)F)cnc1C(=O)Nc1ccc(C(=O)NCC2CCNCC2)c(Cl)c1 [Example Z3, 5-[1-(5-amino-2-pyridyl)-3-(trifluoromethyl)pyrazol-4-yl]-N-[3-chloro-4-(4-piperidylmethylcarbamoyl)phenyl]-1-methyl-imidazole-2-carboxamide]	0.5
Cn1c(-c2cn(-c3ccc(N)cn3)nc2C(F)(F)F)cnc1C(=O)Nc1ccc(C(=O)NCCNC(=O)[C@@H]2C[C@@H](O)CN2)c(Cl)c1 [Example Z33, 5-[1-(5-amino-2-pyridyl)-3-(trifluoromethyl)pyrazol-4-yl]-N-[3-chloro-4-[2-[[(2S,4R)-4-hydroxyprolyl]amino]ethylcarbamoyl]phenyl]-1-methyl-imidazole-2-carboxamide]	1.22
Cn1c(-c2cn(-c3ccc(N)cn3)nc2C(F)(F)F)cnc1C(=O)Nc1ccc(C(=O)N2CCN(C(=O)C3(O)CCNCC3)CC2)c(Cl)c1 [Example C4, 5-[1-(5-amino-2-pyridyl)-3-(trifluoromethyl)pyrazol-4-yl]-N-[3-chloro-4-[4-(4-hydroxypiperidine-4-carbonyl)piperazine-1-carbonyl]phenyl]-1-methyl-imidazole-2-carboxamide]	0.31
Cc1cc(-n2cc(-c3cnc(C(=O)Nc4ccc(C(=O)N5CCN(C(=O)C6CCNCC6)CC5)c(Cl)c4)n3C)c(C(F)(F)F)n2)cnc1N [Example Z77, 5-[1-(6-amino-5-methyl-3-pyridyl)-3-(trifluoromethyl)pyrazol-4-yl]-N-[3-chloro-4-[4-(piperidine-4-carbonyl)piperazine-1-carbonyl]phenyl]-1-methyl-imidazole-2-carboxamide]	0.41
Cn1c(-c2cn(-c3ccc(NCCN)cn3)nc2C(F)(F)F)cnc1C(=O)Nc1ccc(C(=O)N2CCN(C(=O)C3CCNCC3)CC2)c(Cl)c1 [Example Z89, 5-[1-[5-(2-aminoethylamino)-2-pyridyl]-3-(trifluoromethyl)pyrazol-4-yl]-N-[3-chloro-4-(4-isonipecotoylpiperazine-1-carbonyl)phenyl]-1-methyl-imidazole-2-carboxamide]	0.1
Cn1c(-c2cn(-c3ccc(N)cn3)nc2C(F)(F)F)cnc1C(=O)Nc1ccc(C(=O)N2CC3CN(C(=O)[C@@H]4C[C@@H](O)CN4)CC3C2)c(Cl)c1 (stereo partly drawn) [Example Z37, 5-[1-(5-amino-2-pyridyl)-3-(trifluoromethyl)pyrazol-4-yl]-N-[3-chloro-4-[5-[(2S,4R)-4-hydroxyprolyl]-1,3,3a,4,6,6a-hexahydropyrrolo[3,4-c]pyrrole-2-carbonyl]phenyl]-1-methyl-imidazole-2-carboxamide]	0.5
Cn1c(-c2cn(-c3ccc(N)cn3)nc2C(F)(F)F)cnc1C(=O)Nc1ccc(C(=O)N2C[C@H]3CN[C@H]3C2)c(Cl)c1 [Example Z70, 5-[1-(5-amino-2-pyridyl)-3-(trifluoromethyl)pyrazol-4-yl]-N-[3-chloro-4-[(1R,5R)-3,6-diazabicyclo[3.2.0]heptane-3-carbonyl]phenyl]-1-methyl-imidazole-2-carboxamide]	1.37
Cn1c(-c2cn(-c3cnc(N)c(F)c3)nc2C(F)(F)F)cnc1C(=O)Nc1ccc(C(=O)N2CCN(C(=O)C3CCNCC3)CC2)c(Cl)c1 [Example Z74, 5-[1-(6-amino-5-fluoro-3-pyridyl)-3-(trifluoromethyl)pyrazol-4-yl]-N-[3-chloro-4-[4-(piperidine-4-carbonyl)piperazine-1-carbonyl]phenyl]-1-methyl-imidazole-2-carboxamide]	0.75
CNc1ccnc(-n2cc(-c3cnc(C(=O)Nc4ccc(C(=O)N5CCN(C(=O)C6CCNCC6)CC5)c(Cl)c4)n3C)c(C(F)(F)F)n2)n1 [Example A16, N-[3-chloro-4-[4-(piperidine-4-carbonyl)piperazine-1-carbonyl]phenyl]-1-methyl-5-[1-[4-(methylamino)pyrimidin-2-yl]-3-(trifluoromethyl)pyrazol-4-yl]imidazole-2-carboxamide]	0.68

Same assay, conditions: Acinetobacter baumannii, ATCC17961, 16 h, read-out: ATCC 17961 IC90

Structure (SMILES)	IC90 [µM]
Cn1c(-c2cn(-c3ncccn3)nc2C(F)(F)F)cnc1C(=O)Nc1ccc(C(=O)N2CCN(C(=O)C3CCNCC3)CC2)c(Cl)c1 [Example A1, N-[3-Chloro-4-[4-(piperidine-4-carbonyl)piperazine-1-carbonyl]phenyl]-1-methyl-5-[1-pyrimidin-2-yl-3-(trifluoromethyl)pyrazol-4-yl]imidazole-2-carboxamide]	0.69
